Measurements from US12509444B2, “Compounds and methods for CD73 modulation and indications therefor” (Plexxikon Inc., priority 2019, dated 2025).
pIC50: −log10 of the molar value.

Legend:
[1] = target: T1, Human CD73 (amino acid residues 27-549) (Homo sapiens, UniProt P21589); assay: CD73 enzymatic assay (luciferase-based indirect assay, CellTiter-Glo); assay type: biochemical; details: 0.4 nM CD73, 150 μM AMP, 1 hour at room temperature
T1 construct: Human CD73 (amino acid residues 27-549); His tag (N); made in house; host or cells: E. coli
T1 sequence (P21589 27-549): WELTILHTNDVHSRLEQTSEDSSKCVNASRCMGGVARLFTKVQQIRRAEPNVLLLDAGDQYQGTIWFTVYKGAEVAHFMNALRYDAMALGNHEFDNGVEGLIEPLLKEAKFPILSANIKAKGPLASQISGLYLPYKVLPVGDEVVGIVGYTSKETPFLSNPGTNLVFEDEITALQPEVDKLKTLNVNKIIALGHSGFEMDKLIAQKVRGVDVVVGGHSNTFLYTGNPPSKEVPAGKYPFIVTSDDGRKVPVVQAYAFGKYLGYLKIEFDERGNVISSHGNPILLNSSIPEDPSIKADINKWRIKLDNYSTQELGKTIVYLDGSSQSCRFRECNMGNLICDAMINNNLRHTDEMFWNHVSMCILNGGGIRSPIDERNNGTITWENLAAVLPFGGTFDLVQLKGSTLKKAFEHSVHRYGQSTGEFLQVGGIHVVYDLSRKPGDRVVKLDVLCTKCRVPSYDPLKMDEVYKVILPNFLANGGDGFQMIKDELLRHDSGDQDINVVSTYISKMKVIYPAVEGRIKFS
Summary of the method: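 His-tagged human CD73 (27-549) from E. coli, 0.4 nM, with 150 μM AMP in 50 mM HEPES pH 7.4, 0.01% Tween 20; 1 h at room temperature. AMP remaining read by CellTiter-Glo 2.0 luminescence with 1 μM final ATP after 30 min. IC50 from nonlinear regression of % inhibition.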

human CD73 = target: T2, human CD73 (Homo sapiens, UniProt P21589); assay: Inhibitor activity against CD73 in cell based assay (CD73 expressing CHO-K1 cells); details: CHO-K1 cells expressing human CD73, 150 μM AMP, 4 hours of incubation; read-out: CHO-K1 CELL VARIANT: CD73 IC50
T2 construct: expressed in transfected cells
T2 sequence (P21589 27-549): T1 sequence (P21589 27-549)
Summary of the method: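 Stably transfected CHO-K1 cells expressing human CD73 (1×10^4/well) incubated 4 h with compound (8-point 1:3 titration, top 10 μM final, 0.2% DMSO) and 150 μM AMP. Residual AMP in supernatant measured by CellTiter-Glo luminescence with 1 μM ATP after 30 min at room temperature; IC50 by nonlinear regression of percent inhibition vs high/low controls.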

Row | pIC50 [1] | pIC50 (human CD73) | Structure (SMILES)
1 | 5.00 to 9.00 | 5.00 to 9.00 | COc1ccc(S(=O)(=O)N[C@H]2CC[C@H](NC(=O)O[C@@H]3CCN(c4cn[nH]c(=O)c4Cl)C3)CC2)cc1 [P-0251, (R)-1-(5-chloro-6-oxo-1,6-dihydropyridazin-4-yl)pyrrolidin-3-yl ((1r,4R)-4-((4-methoxyphenyl)sulfonamido)cyclohexyl)carbamate]
2 | 5.00 to 9.00 | 4.00 to 5.00 | O=C(N[C@H]1CCN(C(=O)NC2CCCCC2)C1)O[C@@H]1CCN(c2cn[nH]c(=O)c2Cl)C1 [P-0343, (R)-1-(5-chloro-6-oxo-1,6-dihydropyridazin-4-yl)pyrrolidin-3-yl ((S)-1-(cyclohexylcarbamoyl)pyrrolidin-3-yl)carbamate]
3 | 5.00 to 9.00 | 5.00 to 9.00 | CN1CCN(S(=O)(=O)N[C@H]2CC[C@H](NC(=O)O[C@@H]3CCN(c4cn[nH]c(=O)c4Cl)C3)CC2)CC1 [P-0310, (R)-1-(5-chloro-6-oxo-1,6-dihydropyridazin-4-yl)pyrrolidin-3-yl ((1r,4R)-4-((4-methylpiperazine)-1-sulfonamido)cyclohexyl) carbamate]
4 | 5.00 to 9.00 | 4.00 to 5.00 | O=C(NC1CCCC1)O[C@H]1CCN(c2cn[nH]c(=O)c2Cl)C1 [P-0020, (S)-1-(5-chloro-6-oxo-1,6-dihydropyridazin-4-yl)pyrrolidin-3-yl cyclopentylcarbamate]
5 | 5.00 to 9.00 | 5.00 to 9.00 | O=C(N[C@H]1CC[C@@H](NS(=O)(=O)c2ccc(F)cc2)CC1)O[C@@H]1CCN(c2cn[nH]c(=O)c2Cl)C1 [P-0185, (R)-1-(5-chloro-6-oxo-1,6-dihydropyridazin-4-yl)pyrrolidin-3-yl ((1s,4S)-4-((4-fluorophenyl)sulfonamido)cyclohexyl)carbamate]
6 | 5.00 to 9.00 | 5.00 to 9.00 | O=C(NC1CCCC1)O[C@@H]1CCN(c2cn[nH]c(=O)c2Cl)C1 [P-0017, (R)-1-(5-chloro-6-oxo-1,6-dihydropyridazin-4-yl)pyrrolidin-3-yl cyclopentylcarbamate]
7 | 5.00 to 9.00 | 5.00 to 9.00 | O=C(NC1CCN(C(=O)NC2CC2)CC1)O[C@@H]1CCN(c2cn[nH]c(=O)c2Cl)C1 [P-0146, (R)-1-(5-chloro-6-oxo-1,6-dihydropyridazin-4-yl)pyrrolidin-3-yl (1-(cyclopropylcarbamoyl)piperidin-4-yl)carbamate]
8 | 5.00 to 9.00 | 5.00 to 9.00 | C[C@H]1CC[C@H](NC(=O)O[C@@H]2CCN(c3cn[nH]c(=O)c3Cl)C2)CC1 [P-0109, (R)-1-(5-chloro-6-oxo-1,6-dihydropyridazin-4-yl)pyrrolidin-3-yl ((1r,4R)-4-methylcyclohexyl)carbamate]

The remaining lines, values behind:

Row | Structure (SMILES) | pIC50 [1] | pIC50 (human CD73)
9 | NCCn1ncc(N2CC[C@@H](OC(=O)N[C@@H]3CCC(F)(F)C3)C2)c(Cl)c1=O [P-0468, (R)-1-(1-(2-aminoethyl)-5-chloro-6-oxo-1,6-dihydropyridazin-4-yl)pyrrolidin-3-yl ((R)-3,3-difluorocyclopentyl)carbamate] | 5.00 to 9.00 | 5.00 to 9.00
10 | O=C(NC1CCN(C(=O)C2(c3ccccc3)CC2)CC1)O[C@@H]1CCN(c2cn[nH]c(=O)c2Cl)C1 [P-0464, (R)-1-(5-chloro-6-oxo-1,6-dihydropyridazin-4-yl)pyrrolidin-3-yl (1-(1-phenylcyclopropane-1-carbonyl)piperidin-4-yl)carbamate] | 5.00 to 9.00 | 5.00 to 9.00
11 | O=C(N[C@@H]1CCC(F)(F)C1)O[C@@H]1CCN(c2cn[nH]c(=O)c2Cl)C1 [P-0454, (R)-1-(5-chloro-6-oxo-1,6-dihydropyridazin-4-yl)pyrrolidin-3-yl ((R)-3,3-difluorocyclopentyl)carbamate] | 5.00 to 9.00 | 5.00 to 9.00
12 | O=CN[C@H]1C[C@H](NC(=O)O[C@@H]2CCN(c3cn[nH]c(=O)c3Cl)C2)C1 [P-0172, (R)-1-(5-chloro-6-oxo-1,6-dihydropyridazin-4-yl)pyrrolidin-3-yl ((1r,3R)-3-formamidocyclobutyl) carbamate] | 5.00 to 9.00 | 5.00 to 9.00
13 | CCOC(=O)N1CCC(NC(=O)O[C@@H]2CCN(c3cn[nH]c(=O)c3Cl)C2)CC1 [P-0102, ethyl (R)-4-((((1-(5-chloro-6-oxo-1,6-dihydropyridazin-4-yl)pyrrolidin-3-yl)oxy)carbonyl)amino) piperidine-1-carboxylate] | 5.00 to 9.00 | 5.00 to 9.00
14 | O=C(NC1CCN(C(=O)Nc2ccc(F)cc2F)CC1)O[C@@H]1CCN(c2cn[nH]c(=O)c2Cl)C1 [P-0490, (R)-1-(5-chloro-6-oxo-1,6-dihydropyridazin-4-yl)pyrrolidin-3-yl (1-((2,4-difluorophenyl)carbamoyl)piperidin-4-yl)carbamate] | 5.00 to 9.00 | 5.00 to 9.00
15 | C[C@H]1CN(c2cn[nH]c(=O)c2Cl)C[C@@H]1NC(=O)OC1CCCCC1 [P-0063, cyclohexyl ((3R,4S)-1-(5-chloro-6-oxo-1,6-dihydropyridazin-4-yl)-4-methylpyrrolidin-3-yl)carbamate] | 5.00 to 9.00 | 4.00 to 5.00
16 | O=C(NC1(C(F)(F)F)CC1)O[C@@H]1CCN(c2cn[nH]c(=O)c2Cl)C1 [P-0134, (R)-1-(5-chloro-6-oxo-1,6-dihydropyridazin-4-yl)pyrrolidin-3-yl (1-(trifluoromethyl)cyclopropyl) carbamate] | 5.00 to 9.00 | 5.00 to 9.00
17 | O=C(NC1CC2(C1)CN(S(=O)(=O)c1ccc(F)cc1)C2)O[C@@H]1CCN(c2cn[nH]c(=O)c2Cl)C1 [P-0212, (R)-1-(5-chloro-6-oxo-1,6-dihydropyridazin-4-yl)pyrrolidin-3-yl (2-((4-fluorophenyl)sulfonyl)-2-azaspiro[3.3]heptan-6-yl)carbamate] | 5.00 to 9.00 | 5.00 to 9.00
18 | O=C(NC1CC(O)C1)O[C@@H]1CCN(c2cn[nH]c(=O)c2Cl)C1 (stereo partly drawn) [P-0119, (R)-1-(5-chloro-6-oxo-1,6-dihydropyridazin-4-yl)pyrrolidin-3-yl (3-hydroxycyclobutyl)carbamate] | 5.00 to 9.00 | 5.00 to 9.00
19 | CC(C)(C)c1nnc(NC(=O)O[C@@H]2CCN(c3cn[nH]c(=O)c3Cl)C2)s1 [P-0219, (R)-1-(5-chloro-6-oxo-1,6-dihydropyridazin-4-yl)pyrrolidin-3-yl (5-(tert-butyl)-1,3,4-thiadiazol-2-yl)carbamate] | 4.00 to 5.00 | 4.00 to 5.00
20 | O=C(NC1CCC(F)(F)CC1)O[C@@H]1CCN(c2cnn(CCCO)c(=O)c2Cl)C1 [P-0332, (R)-1-(5-chloro-1-(3-hydroxypropyl)-6-oxo-1,6-dihydropyridazin-4-yl)pyrrolidin-3-yl (4,4-difluorocyclohexyl)carbamate] | 5.00 to 9.00 | 5.00 to 9.00
21 | O=C(N[C@H]1CCCOC1)O[C@@H]1CCN(c2cn[nH]c(=O)c2Cl)C1 [P-0132, (R)-1-(5-chloro-6-oxo-1,6-dihydropyridazin-4-yl)pyrrolidin-3-yl ((S)-tetrahydro-2H-pyran-3-yl)carbamate] | 5.00 to 9.00 | 5.00 to 9.00
22 | CCOC(=O)NCC(=O)N1CCC(NC(=O)O[C@@H]2CCN(c3cn[nH]c(=O)c3Cl)C2)CC1 [P-0162, ethyl (R)-(2-(4-((((1-(5-chloro-6-oxo-1,6-dihydropyridazin-4-yl)pyrrolidin-3-yl)oxy)carbonyl)amino)piperidin-1-yl)-2-oxoethyl) carbamate] | 5.00 to 9.00 | 5.00 to 9.00
23 | O=C(NC1CCN(C(=O)Cc2c(F)cccc2Cl)CC1)O[C@@H]1CCN(c2cn[nH]c(=O)c2Cl)C1 [P-0422, (R)-1-(5-chloro-6-oxo-1,6-dihydropyridazin-4-yl)pyrrolidin-3-yl (1-(2-(2-chloro-6-fluorophenyl)acetyl)piperidin-4-yl)carbamate] | 5.00 to 9.00 | 5.00 to 9.00
24 | Cn1ncc(N2CC[C@@H](OC(=O)N[C@H]3CC[C@H](NC(=O)c4ccccc4)CC3)C2)c(Cl)c1=O [P-0217, (R)-1-(5-chloro-1-methyl-6-oxo-1,6-dihydropyridazin-4-yl)pyrrolidin-3-yl ((1r,4R)-4-benzamidocyclohexyl) carbamate] | 5.00 to 9.00 | 5.00 to 9.00
25 | CCCNC(=O)[C@H]1C[C@H](NC(=O)O[C@@H]2CCN(c3cn[nH]c(=O)c3Cl)C2)C1 [P-0199, (R)-1-(5-chloro-6-oxo-1,6-dihydropyridazin-4-yl)pyrrolidin-3-yl ((1r,3R)-3-(propylcarbamoyl)cyclobutyl) carbamate] | 5.00 to 9.00 | 4.00 to 5.00
26 | CC1(C)CCCCC1NC(=O)O[C@@H]1CCN(c2cn[nH]c(=O)c2Cl)C1 (stereo partly drawn) [P-0413, (R)-1-(5-chloro-6-oxo-1,6-dihydropyridazin-4-yl)pyrrolidin-3-yl (2,2-dimethylcyclohexyl)carbamate] | 5.00 to 9.00 | 5.00 to 9.00
